Experimental data taken from patent publication US20250235434A1, “RIFABUTIN ANALOGS FOR THE TREATMENT OF DISEASE” (BIOVERSYS AG, priority 2022, published 2025).
≈ marks a conversion by molar mass, not a printed value. Where two headings read alike, the source gives them in different places.

Key:
Type in all cases: cell-based
[1] = system: S. aureus (UAMS-1625 strain); assay: MIC by broth microdilution against S. aureus; conditions: Staphylococcus aureus, 20 h, read-out: MIC S. aureus
[2] = system: A. baumannii (HUMC1 strain); assay: MIC by broth microdilution against A. baumannii; conditions: Acinetobacter baumannii, RPMI medium supplemented with 10% FCS, 35° C. for 20 hours, visual reading
[3] = system: M. abscessus (ATCC 19977); assay: MIC by broth microdilution against M. abscessus; conditions: Mycobacteroides abscessus, ATCC19977, 20 h, read-out: MIC M. abscessus
[4] = system: M. smegmatis (ATCC 700084); assay: MIC against M. smegmatis (resazurin assay); conditions: Mycolicibacterium smegmatis, ATCC700084, Middlebrook 7H9 + ADC, 90% growth inhibition, 20 h
[5] = system: M. xenopi (ATCC 19250); assay: MIC against M. xenopi (resazurin assay); conditions: Mycobacterium xenopi, ATCC19250, 168 h, Middlebrook 7H9 + ADC, 90% growth inhibition, 7 days
[6] = system: M. avium (ATCC 25291); assay: MIC against M. avium (resazurin assay); conditions: Mycobacterium avium, ATCC25291, 168 h, Middlebrook 7H9 + ADC, 90% growth inhibition, 7 days
[7] = system: M. kansasii (ATCC 12478); assay: MIC against M. kansasii (resazurin assay); conditions: Mycobacterium kansasii, ATCC12478, 168 h, Middlebrook 7H9 + ADC, 90% growth inhibition, 7 days
[8] = system: M. tuberculosis H37Rv (ATCC 27294); assay: microbe, parasite or virus in culture; conditions: Mycobacterium tuberculosis, 120 h
[9] = ATCC 19977, Middlebrook 7H9 broth with ADC supplement, visual reading

SMILES | MIC [1] [µg/mL] | MIC [2] [µg/mL] | MIC [3, 9] [µg/mL] | MIC [4] [µg/mL] | MIC [5] [µg/mL] | MIC [6] [µg/mL] | MIC [7] [µg/mL] | MIC [8] [µg/mL] | MIC [3] [µg/mL]
CO[C@H]1/C=C/O[C@@]2(C)Oc3c(C)c(O)c4c(c3C2=O)C2=NC3(CCN(CC(C)C)CC3)NC2=C(NC(=O)/C(C)=C\C=C\[C@H](C)[C@H](O)[C@@H](C)[C@@H](O)[C@@H](C)[C@H](OC(=O)CN2CCC(N(C)C)CC2)[C@@H]1C)C4=O [Compound 3] | 0.03 (≈ 30.8 nM) | ≤ 0.002 | 1 (≈ 1030 nM) | 0.03 | 0.07 | 1.2 | 0.01 | 0.008 (≈ 8.22 nM) | –
CO[C@H]1/C=C/O[C@@]2(C)Oc3c(C)c(O)c4c(c3C2=O)C2=NC3(CCN(CC(C)C)CC3)NC2=C(NC(=O)/C(C)=C\C=C\[C@H](C)[C@H](O)[C@@H](C)[C@@H](O)[C@@H](C)[C@H](OC(=O)CN2CCC(O)(Cc3ccccc3)CC2)[C@@H]1C)C4=O [Compound 24] | 0.125 (≈ 121 nM) | 0.016 (≈ 15.4 nM) | 1 (≈ 965 nM) | 0.1 | 0.01 | 2 | 0.01 | 0.004 (≈ 3.86 nM) | –
CO[C@H]1/C=C/O[C@@]2(C)Oc3c(C)c(O)c4c(c3C2=O)C2=NC3(CCN(CC(C)C)CC3)NC2=C(NC(=O)/C(C)=C\C=C\[C@H](C)[C@H](O)[C@@H](C)[C@@H](O)[C@@H](C)[C@H](OC(=O)CN2CCN(CC3CCCCC3)CC2)[C@@H]1C)C4=O [Compound 40] | 0.25 (≈ 243 nM) | 0.125 (≈ 122 nM) | 0.125 (≈ 122 nM) | 0.02 | 0.05 | 0.19 | 0.008 | 0.004 (≈ 3.89 nM) | –
CO[C@H]1/C=C/O[C@@]2(C)Oc3c(C)c(O)c4c(c3C2=O)C2=NC3(CCN(CC(C)C)CC3)NC2=C(NC(=O)/C(C)=C\C=C\[C@H](C)[C@H](O)[C@@H](C)[C@@H](O)[C@@H](C)[C@H](OC(=O)CN2CCN(C)CC2)[C@@H]1C)C4=O [Compound 6] | 0.03 (≈ 31.7 nM) | ≤ 0.002 | 1 (≈ 1060 nM) | 0.03 | 0.04 | 1.3 | 0.01 | 0.008 (≈ 8.46 nM) | –
CO[C@H]1/C=C/O[C@@]2(C)Oc3c(C)c(O)c4c(c3C2=O)C2=NC3(CCN(CC(C)C)CC3)NC2=C(NC(=O)/C(C)=C\C=C\[C@H](C)[C@H](O)[C@@H](C)[C@@H](O)[C@@H](C)[C@H](OC(=O)C[n+]2ccc(N(C)C)cc2)[C@@H]1C)C4=O [Compound 35] | 0.06 | ≤ 0.002 | 0.5 | 0.03 | 0.04 | 0.8 | 0.003 | 0.0025 | –
CO[C@H]1/C=C/O[C@@]2(C)Oc3c(C)c(O)c4c(c3C2=O)C2=NC3(CCN(CC(C)C)CC3)NC2=C(NC(=O)/C(C)=C\C=C\[C@H](C)[C@H](O)[C@@H](C)[C@@H](O)[C@@H](C)[C@H](OC(=O)CN2CCC(N(C)c3ccccc3)CC2)[C@@H]1C)C4=O [Compound 39] | 0.125 (≈ 121 nM) | ≤ 0.03 | – | 0.06 | 0.003 | 0.4 | 0.003 | 0.0001 (≈ 0.0966 nM) | 0.125 (≈ 121 nM)
CO[C@H]1/C=C/O[C@@]2(C)Oc3c(C)c(O)c4c(c3C2=O)C2=NC3(CCN(CC(C)C)CC3)NC2=C(NC(=O)/C(C)=C\C=C\[C@H](C)[C@H](O)[C@@H](C)[C@@H](O)[C@@H](C)[C@H](OC(=O)CN2CCCN(c3ccc(F)cc3)CC2)[C@@H]1C)C4=O [Compound 34] | 2 (≈ 1920 nM) | 0.125 (≈ 120 nM) | 0.5 (≈ 481 nM) | 0.11 | 0.01 | 0.5 | 0.009 | 0.008 (≈ 7.7 nM) | –
CO[C@H]1/C=C/O[C@@]2(C)Oc3c(C)c(O)c4c(c3C2=O)C2=NC3(CCN(CC(C)C)CC3)NC2=C(NC(=O)/C(C)=C\C=C\[C@H](C)[C@H](O)[C@@H](C)[C@@H](O)[C@@H](C)[C@H](OC(=O)CN2CCC(n3c(=O)[nH]c5cc(Cl)ccc53)CC2)[C@@H]1C)C4=O [Compound 19] | 4 (≈ 3650 nM) | 0.125 (≈ 114 nM) | 0.5 (≈ 456 nM) | 0.24 | 0.03 | 4 | 0.015 | 0.003 (≈ 2.74 nM) | –
